Target: T1, Thermus aquaticus (Taq) DNA polymerase variant G46D F667Y (Thermus aquaticus, UniProt P19821, F667Y/G46D)
T1 construct: Expression vector pRDA3-2 contains the full-length Taq DNA polymerase gene; made in house; host or cells: E. coli DG116 (stated generally for the polymerases of the invention)
Assay: Limiting template primer extension competition assay (ddNTP incorporation), G46D F667Y Taq
Format: biochemical
Method: The ability of the enzymes of this invention to efficiently incorporate nucleotides labeled with fluorescein family dyes is measured by ddNTP incorporation assays. One such assay is a primer extension competition assay conducted under conditions of limiting template. In this assay, a primer DG48 (5′-[…]), (SEQ ID NO: 11), bound to M13 mp18 template (Innis et al., 1988, Proc. Natl. Acad. Sci. USA 85:9436) is extended in the presence of [α-^33P]dCTP and excess enzyme with various levels of a fluorescently labeled ddNTP, Zowie-ddCTP. Because the incorporation of a ddCTP residue terminates the extension reaction, the more readily a DNA polymerase incorporates a ddCTP into an extended primer, the less [α-^33P]dCTP can be incorporated. Thus, as the efficiency of fluorescently labeled ddCTP incorporation increases, the extent of inhibition of DNA synthesis is increased. The reactions were also performed with various levels of an unlabeled ddCTP. […]
The relative abilities of G46D F667Y Taq, G46D F667Y E681K Taq and F730Y Tma30 DNA polymerases to incorporate a fluorescein dye family-labeled ddCTP were compared by use of a limiting template, primer extension competition assay. […] In this competition assay, because the incorporation of a ddCTP terminates the extension reaction, the more readily the polymerase incorporates a ddCTP into an extended primer, the less [α-^33P]dCTP can be incorporated. […]

T1 sequence (P19821 whole entry G46D/F667Y): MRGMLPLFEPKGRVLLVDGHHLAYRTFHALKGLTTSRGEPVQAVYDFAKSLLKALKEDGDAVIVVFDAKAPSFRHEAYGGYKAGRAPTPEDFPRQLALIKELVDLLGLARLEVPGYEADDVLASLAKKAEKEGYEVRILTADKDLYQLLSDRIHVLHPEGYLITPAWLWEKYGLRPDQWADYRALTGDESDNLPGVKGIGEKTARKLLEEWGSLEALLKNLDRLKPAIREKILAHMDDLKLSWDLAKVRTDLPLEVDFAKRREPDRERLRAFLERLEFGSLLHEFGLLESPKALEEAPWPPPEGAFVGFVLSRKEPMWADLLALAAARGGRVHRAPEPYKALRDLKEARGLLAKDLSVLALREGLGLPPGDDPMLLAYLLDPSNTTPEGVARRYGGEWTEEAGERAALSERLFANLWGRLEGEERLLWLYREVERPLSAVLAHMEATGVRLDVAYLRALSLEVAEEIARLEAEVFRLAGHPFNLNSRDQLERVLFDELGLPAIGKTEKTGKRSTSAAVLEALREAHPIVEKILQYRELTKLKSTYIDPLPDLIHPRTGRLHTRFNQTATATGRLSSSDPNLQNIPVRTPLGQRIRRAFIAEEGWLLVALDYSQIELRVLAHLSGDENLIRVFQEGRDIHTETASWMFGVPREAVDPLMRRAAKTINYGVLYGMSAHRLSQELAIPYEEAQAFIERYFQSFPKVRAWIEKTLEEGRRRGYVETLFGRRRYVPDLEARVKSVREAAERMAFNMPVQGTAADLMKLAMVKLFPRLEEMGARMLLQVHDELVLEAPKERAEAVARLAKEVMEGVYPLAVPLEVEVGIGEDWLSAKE

Nc1ccn([C@H]2CC[C@@H](COP(=O)(O)OP(=O)(O)OP(=O)(O)O)O2)c(=O)n1 [ddCTP]
IC50: 56 nM

From patent publication US7598032B2, “Thermostable DNA polymerases incorporating nucleoside triphosphates labeled with fluorescent dyes” (Roche Molecular Systems, priority 1997, dated 2009)
